Source: patent US9040725B2, “Benzocycloheptane and benzoxepine derivatives” (Janssen Pharmaceutica NV, priority 2008, dated 2015)
Counter-ions that a name gives are not always drawn. Like-named read-outs stand apart in the source and are kept apart here.

Columns and labels:
GHS1A-receptor = biological target: T1, GHS1A-receptor (Homo sapiens, UniProt Q92847); assay: Ghrelin-agonism in HEK293 cells (intracellular calcium, FLIPR); format: cell-based; conditions: calcium fluorescence (fluo-4 or Kit-3), EC50 in M
T1 construct: expressed in transfected cells; host or cells: HEK293
Protocol: One day before the experiment, HEK293 cells, permanently transfected with the gene sequence for expression of the GHS1A-receptor, were seeded in poly-D-Lysine coated 96-well plates with clear bottom, and allowed to grow to […] of confluence on the next day.
Then, cells were incubated with the calcium-sensitive intracellular fluorescent probe fluo-4 or Kit-3 for 1 h at 37° C. Fluorescence representing free intracellular calcium in the cells was measured in a FLIPR-system (excitation at 488 nm, emission>520 nm). Test compounds were added to each well at the desired concentration and the fluorescence signal was simultaneously recorded in all wells. Release of intracellular calcium triggered by activation of the receptors upon addition of the test compound was measured as the fluorescence emitted from the complex of calcium and the fluorescent probe. The drug effect on fluorescence intensity was expressed relative to the maximal fluorescence intensity measured in cells exposed to the calcium-ionophore ionomycin.

NMRI-mice = assay: Acceleration of gastric emptying and small intestinal propulsion in NMRI-mice; format: in vivo; conditions: Mus musculus, sc
Protocol: Male NMRI-mice weighing around 25 gram were fasted for 20 h and had free access to drinking water. Test compounds were administered to the animals by subcutaneous route 30 min before they were given a test meal by oral gavage. The test meal consisted of 0.3 ml of a chocolate nutridrink solution (1.0 kcal/ml) containing phenol red marker (5 mg/ml). Fifteen min after administration of the meal, the mice were sacrificed by CO2 gas inhalation. The phenol red content remaining in the stomach (extracted from the stomach with NaOH) was determined at 557 nm in a spectrophotometer and expressed as extinction units. Small intestinal propulsion was determined as the distance traveled by the phenol red marker through the intestine and expressed as a percentage of total small intestinal length (from the pylorus to the ileo-cecal junction).
The lowest dose that was active for each parameter was noted as the lowest active dose (LAD). Table 12 discloses LAD values.

[1] = HEK293 cells permanently transfected with GHS1A-receptor, read-out: pEC50 (converted)
[2] = lowest active dose, subcutaneous, 30 min before phenol red test meal, active when >60% of animals had phenol red front beyond 85% of small intestinal length, read-out: LAD (mg/kg) Small intestinal propulsion
[3] = lowest active dose, subcutaneous, 30 min before phenol red test meal, stomach content 15 min after meal, active when >60% of animals below 0.9 extinction units, read-out: LAD (mg/kg) Gastric emptying

T1 sequence (Q92847 whole entry): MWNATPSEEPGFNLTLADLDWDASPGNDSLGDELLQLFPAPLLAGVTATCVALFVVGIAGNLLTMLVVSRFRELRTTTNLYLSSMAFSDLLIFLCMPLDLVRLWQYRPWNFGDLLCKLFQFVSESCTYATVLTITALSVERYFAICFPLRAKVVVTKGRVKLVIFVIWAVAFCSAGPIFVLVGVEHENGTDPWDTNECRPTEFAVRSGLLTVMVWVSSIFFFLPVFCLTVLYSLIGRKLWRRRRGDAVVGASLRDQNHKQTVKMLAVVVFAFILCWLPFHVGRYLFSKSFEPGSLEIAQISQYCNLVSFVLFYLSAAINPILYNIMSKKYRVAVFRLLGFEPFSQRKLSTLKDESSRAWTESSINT

EC50 (GHS1A-receptor; [1]) [nM]	SMILES	minimal effective dose (NMRI-mice; [2]) [mg/kg]	minimal effective dose (NMRI-mice; [3]) [mg/kg]	further results
50.1	CN(C)CCCC1(O)c2ccccc2OCCC1c1ccc(F)c(F)c1 (racemic) [Compound 95]	> 10	> 10	
316	COc1cc(C2CCCc3ccccc3C2(O)CCCN2CCC(O)C2)ccc1Cl (racemic) [Compound 73]	10	> 10	
31.6	CCN(CC)CCCC1(O)c2ccccc2CCCC1c1ccc(F)cc1F (racemic) [Compound 57]	10	10	
50.1	CN(C)CCCC1(O)c2ccccc2CCCC1c1cncc(Cl)c1 (racemic) [Compound 81]	> 10	> 10	
63.1	CN(C)CCCC1(O)c2ccccc2CCCC1c1ccc2c(c1)OCO2 (racemic) [Compound 88]	> 10	> 10	
7940	COc1ccc(C2CCOc3ccccc3C2(O)CCCN(C)C)cn1 (racemic) [Compound 102]	> 10	> 10	
2000	COc1ccccc1C1CCOc2ccccc2C1(O)CCCN(C)C (racemic) [Compound 96]	> 10	> 10	
794	Cc1ccc(C2CCOc3ccccc3C2(O)CCCN(C)C)cn1 (racemic) [Compound 99]	> 10	10	
25.1	COc1cc(C2CCOc3ccccc3C2(O)CCCN(C)C)ccc1Cl (racemic) [Compound 97]	2.5	2.5	
251	CC(C)NCCCC1(O)c2ccccc2CCCC1c1cncc(Cl)c1 (racemic) [Compound 82]	> 10	> 10	
398	CCN(CC)CCCC1(O)c2ccccc2CCCC1c1ccc(OC)c(OC)c1 (racemic) [Compound 78]	> 10	> 10	
63.1	CCN(CC)CCCC1(O)c2ccccc2OCCC1c1ccc(C)cc1 (racemic) [Compound 93]	10	> 10	
63.1	CN(C)CCCC1(O)c2ccccc2CCCC1c1ccccc1 (racemic) [Compound 106]	10	10	
631	COc1cncc(C2CCCc3ccccc3C2(O)CCCN(C)C)c1 (racemic) [Compound 83]	> 10	> 10	

Further lines, the compound ahead of its results:

SMILES	EC50 (GHS1A-receptor; [1]) [nM]	minimal effective dose (NMRI-mice; [2]) [mg/kg]	minimal effective dose (NMRI-mice; [3]) [mg/kg]	further results
COCCN(C)CCCC1(O)c2ccccc2CCCC1c1ccc(F)cc1F (racemic) (as salt: oxalate) [Compound 58]				melting point: 140 °C
OC1(CCCN2CCCC2)c2ccccc2CCCC1c1ccccc1 (racemic) (as salt: oxalate) [Compound 21]				melting point: 202 °C
CCN(CC)CCCC1(O)c2ccccc2CCCC1c1ccc(Cl)cc1 (racemic) (as salt: HCl) [Compound 46]				melting point: 189.8 °C
CNCCCC1(O)c2ccccc2CCCC1c1ccc(OC)cc1 (racemic) (as salt: oxalate) [Compound 65]				melting point: 134.3 °C
CNCCCC1(O)c2ccccc2CCCC1c1ccc(C)cc1 (racemic) (as salt: oxalate) [Compound 27]				melting point: 235.8 °C
CCN(CC)CCCC1(O)c2ccccc2CCCC1c1ccc(F)cc1F (racemic) (as salt: oxalate) [Compound 57]				melting point: 160.3 °C
Oc1ccc([C@H]2CCCc3ccccc3[C@]2(O)CCCN2CCOCC2)cc1 (relative stereo) [Compound 7]				melting point: 177.1 °C
CN(C)CCCC1(O)c2ccccc2CCCC1c1ccccc1 (single isomer, unassigned) (as salt: oxalate) [Compound 105]				melting point: 178 °C
CN(C)CCCC1(O)c2ccccc2CCCC1c1ccccc1 (single isomer, unassigned) (as salt: oxalate) [Compound 104]				melting point: 210 °C
CCN(CC)CCCC1(O)c2ccccc2CCCC1c1ccc(C)cc1 (racemic) (as salt: oxalate) [Compound 31]				melting point: 158.6 °C
CN(C)CCCC1(O)c2ccccc2CCCC1c1ccc(F)cc1 (racemic) [Compound 52]	12.6	> 10	> 10	
CCN(CC)CCCC1(O)c2ccccc2CCCC1c1cccc(Cl)c1 (racemic) [Compound 41]	7.94	> 10	> 10	
OC1(CCCN2CCCC2)c2ccccc2CCCC1c1ccc(Cl)cc1 (racemic) (as salt: oxalate) [Compound 48]				melting point: 236.2 °C
CCN(CC)CCCC1(O)c2ccccc2CCCC1c1ccc(OC)cc1 (racemic) (as salt: oxalate) [Compound 67]				melting point: 153 °C
Cc1ccc(C2CCCc3ccccc3C2(O)CCCN(C)C)cc1 (racemic) [Compound 29]	15.8	10	10	
CCN(CC)CCCC1(O)c2ccccc2CCCC1c1ccc(Cl)cc1 (racemic) [Compound 46]	200	10	10	

SMILES	EC50 (GHS1A-receptor; [1]) [nM]	minimal effective dose (NMRI-mice; [2]) [mg/kg]	minimal effective dose (NMRI-mice; [3]) [mg/kg]	further results
CN(C)CCCC1(O)c2ccccc2CCCC1c1ccc(O)cc1 (racemic) [Compound 35]	2000	> 10	> 10	
CN(C)CCC[C@@]1(O)c2ccccc2OCC[C@@H]1c1ccccc1 (relative stereo) (as salt: oxalate) [Compound 8]				melting point: 136 °C
CN(C)CCC[C@@]1(O)c2ccccc2CCC[C@@H]1c1ccc(Cl)cc1 (racemic) [Compound 1]	39.8	2.5	2.5	
COc1cccc([C@H]2CCCc3ccccc3[C@]2(O)CCCN(C)C)c1 (racemic) [Compound 14, (±)cis-5-(3-Dimethylamino-propyl)-6-(3-methoxy-phenyl)-6,7,8,9-tetrahydro-5H-benzocyclohepten-5-ol oxalate]				EC50 (GHS1A-receptor; pEC50, HEK293 cells permanently transfected with GHS1A-receptor): 12.6 nM; minimal effective dose (NMRI-mice; read-out: LAD (mg/kg) Gastric emptying): 10 mg/kg; minimal effective dose (NMRI-mice; read-out: LAD (mg/kg) Small intestinal propulsion): > 10 mg/kg
CN(C)CCCC1(O)c2ccccc2CCCC1c1ccc(F)cc1F (racemic) [Compound 56]	25.1	> 10	10	
CNCCCC1(O)c2ccccc2CCCC1c1cccc(C)c1 (racemic) [Compound 22]	39.8	> 10	> 10	
OC1(CCCN2CCCC2)c2ccccc2CCCC1c1ccccc1 (racemic) [Compound 21]	79.4	> 10	> 10	
OC1(CCCN2CCCC2)c2ccccc2CCCC1c1ccc(Cl)cc1 (racemic) [Compound 48]	31.6	> 10	> 10	
CN(C)CCCC1(O)c2ccccc2CCCC1c1ccc(Br)cc1 (racemic) [Compound 38]	25.1	> 10	> 10	
CNCCCC1(O)c2ccccc2CCCC1c1ccc(C)cc1 (racemic) [Compound 27]	79.4	> 10	> 10	
COCCN(C)CCC[C@@]1(O)c2ccccc2CCC[C@@H]1c1ccc(Cl)cc1 (relative stereo) [Compound 13]	251	> 10	10	
CNCCCC1(O)c2ccccc2CCCC1c1cccc(Cl)c1 (racemic) [Compound 39]	50.1	> 10	> 10	
Cc1ccc([C@H]2CCCc3ccccc3[C@]2(O)CCCN(C)C)cn1 [Compound 12]	251	> 10	> 10	
COCCN(C)CCCC1(O)c2ccccc2CCCC1c1cccc(Cl)c1 (racemic) [Compound 42]	50.1	> 10	> 10	
COCCN(C)CCCC1(O)c2ccccc2CCCC1c1ccc(C)cc1 (racemic) [Compound 30]	79.4	> 10	10	
CCN(CC)CCCC1(O)c2ccccc2CCCC1c1ccc(F)cc1 (racemic) [Compound 53]	20	> 10	> 10	
